In patent US5352690A, “1,2,4-trioxygenated benzene derivatives useful as leukotriene antagonists” (Eli Lilly and Company, priority 1992, dated 1994):
Counter-ions that a name gives are not always drawn.

Key:
[1] = molecular target: [^3 H]-LTB4 binding to receptors on human neutrophils (Homo sapiens, UniProt Q15722); experiment: biochemical; details: [^3 H]-LTB4 2.65 nM (20 μl), 4° C., 10 minutes
Protocol: The effectiveness of the compounds of the present invention to inhibit binding of [^3 H]-LTB4 to human neutrophils was measured by using an adaptation of a radioligand binding assay developed by Goldman, D. W. and Goetzl, E. J.: Specific binding of leukotriene B4 to receptors on human polymornuclear leukocytes. J. Immunol. 129: 1600-1604(1982). Heparinized venous blood was drawn from normal human volunteers and neutrophils isolated by standard techniques of Ficoll-Hypaque centrifugation, dextran 70 sedimentation and hypotonic lysis. […] The binding assay was carried out in silanized 12×75 mm glass tubes by adding in the following order: 10 μl DMSO containing different amounts of test compound,20 μl of 2.65 nM [^3 H]-LTB4 and 500 μl of the cells suspended in Hanks' balanced salt solution containing 0.1% ovalbumin (2×10^7 cells/ml). Tubes were incubated at 4° C. for 10 minutes and the reaction terminated by isolating the cells with a Brandel MB-48R harvester. Radioactivity bound to the cells was measured by scintillation spectrometry. Nonspecific binding was determined by measuring the amount of label bound when a greater than 2000-fold excess of nonradioactive ligand was added. Appropriate corrections for nonspecific binding were made when analyzing the data.

[2] = molecular target: [^3 H]-LTB4 binding, guinea pig lung membranes (Cavia porcellus, UniProt H0VYV8); experiment: [^3 H]-LTB4 Radioligand Binding Assay in Guinea Pig Lung Membranes; details: read-out: Binding Guinea Pig Lung pKi (converted)
Sequence of [^3 H]-LTB4 binding, guinea pig lung membranes (H0VYV8 1-348): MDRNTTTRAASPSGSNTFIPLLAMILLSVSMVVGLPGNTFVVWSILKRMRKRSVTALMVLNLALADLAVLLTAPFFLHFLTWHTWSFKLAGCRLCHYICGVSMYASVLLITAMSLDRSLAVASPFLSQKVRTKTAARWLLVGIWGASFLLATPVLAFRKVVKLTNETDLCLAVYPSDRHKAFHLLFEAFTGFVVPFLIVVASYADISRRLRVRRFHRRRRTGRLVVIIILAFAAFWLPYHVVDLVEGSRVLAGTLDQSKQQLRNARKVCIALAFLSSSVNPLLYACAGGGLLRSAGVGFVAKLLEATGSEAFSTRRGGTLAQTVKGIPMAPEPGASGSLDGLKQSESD

Sequence of [^3 H]-LTB4 binding to receptors on human neutrophils (Q15722 whole entry): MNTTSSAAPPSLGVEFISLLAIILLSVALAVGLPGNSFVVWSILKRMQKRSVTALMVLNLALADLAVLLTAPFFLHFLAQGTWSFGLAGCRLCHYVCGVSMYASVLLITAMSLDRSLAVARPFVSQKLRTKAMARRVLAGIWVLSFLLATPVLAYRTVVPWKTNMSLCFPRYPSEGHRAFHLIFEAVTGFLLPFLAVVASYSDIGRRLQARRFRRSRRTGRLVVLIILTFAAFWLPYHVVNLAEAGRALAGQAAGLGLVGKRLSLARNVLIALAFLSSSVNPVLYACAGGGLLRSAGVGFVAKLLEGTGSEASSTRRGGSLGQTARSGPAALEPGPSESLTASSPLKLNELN

CCc1cc(Sc2ccccc2)c(O)cc1OCCCCCC(C)(C)c1nn[nH]n1 [disodium salt]
IC50 [1]: 885 nM | Ki [2]: 219 nM

CCc1cc(OCCC(C)C)c(O)cc1OCCCCCC(C)(C)c1nn[nH]n1 [sodium salt]
Ki [2]: 74.1 nM

CCCc1c(OCCCOc2cc(O)c(OCC)cc2CC)ccc2c1OC(C(=O)O)CC2 (stereo not shown) [Example 10, 3,4-Dihydro-8-propyl-7-[3-(2-ethyl-5-hydroxy-4-ethoxy-phenoxy)propoxy]-2H-1-benzopyran-2-carboxylic acid]
IC50 [1]: 4.2 nM | Ki [2]: 1.29 nM

CCc1cc(OC(C)C)c(O)cc1OCCCCCC(C)(C)c1nn[nH]n1 [sodium salt]
Ki [2]: 40.7 nM

CCOc1cc(CC)c(OCCCCCC(C)(C)c2nn[nH]n2)cc1O [sodium salt]
Ki [2]: 12.3 nM

CCc1cc(OCc2ccc(F)cc2)c(O)cc1OCCCCCC(C)(C)c1nn[nH]n1 [sodium salt]
Ki [2]: 110 nM

CCCc1c(OCCCOc2cc(O)c(OC)cc2CC)ccc2c1OC(C(=O)O)CC2 (stereo not shown) [Example 9, 3,4-Dihydro-8-propyl-7-[3-(2-ethyl-5-hydroxy-4-methoxy-phenoxy)propoxy]-2H-1-benzopyran-2-carboxylic acid]
IC50 [1]: 2.9 nM | Ki [2]: 1.51 nM

CCc1cc(OC)c(O)cc1OCCCCCC(C)(C)c1nn[nH]n1 [sodium salt]
Ki [2]: 22.9 nM

CCCCCOc1cc(CC)c(OCCCCCC(C)(C)c2nn[nH]n2)cc1O [sodium salt]
Ki [2]: 21.4 nM

CCc1cc(OC2CCCC2)c(O)cc1OCCCCCC(C)(C)c1nn[nH]n1 [sodium salt]
Ki [2]: 77.6 nM
